In patent US12509452B2, “Substituted-isoxazoline-containing aromatic compound, preparation method therefor, herbicidal composition and use thereof” (QINGDAO KINGAGROOT CHEMICAL COMPOUND CO., LTD., priority 2019, dated 2025):

Tests used:
Assay in all cases: weeding effect in post-emergence stage
Format in all cases: in vivo
Conditions in all cases: dose 15 g a.i./ha
Conyza japonica = test system: Conyza japonica
Method in brief: (§1)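 Read-out is fresh weight growth control rate, binned into levels 0-5 (Level 5 above 85%, Level 0 below 5%), recorded 3 weeks after spraying and averaged over three repeats. Plants were treated at the 2-3 leaf stage with 7.5-500 g a.i./ha plus methyl oleate synergist.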

Beckmannia syzigachne = test system: Beckmannia syzigachne
Method in brief: as §1

Rorippa indica = test system: Rorippa indica
Method in brief: as §1

Alopecurus japonicus = test system: Alopecurus japonicus
Method in brief: as §1

| Compound | weeding effect in post-emergence stage, Conyza japonica (activity level) (Conyza japonica) | weeding effect in post-emergence stage, Beckmannia syzigachne (activity level) (Beckmannia syzigachne) | weeding effect in post-emergence stage, Rorippa indica (activity level) (Rorippa indica) | weeding effect in post-emergence stage, Alopecurus japonicus (activity level) (Alopecurus japonicus) |
| --- | --- | --- | --- | --- |
| CC(C)OC(=O)C1(C)CC(c2cc(-n3c(=O)n(C)c(=S)n(C)c3=O)c(F)cc2Cl)=NO1 (stereo not drawn) [Compound 1-71] | 5 (Level 5: growth control rate is above 85%) | 5 (Level 5: growth control rate is above 85%) | 5 (Level 5: growth control rate is above 85%) | 5 (Level 5: growth control rate is above 85%) |
| CCCCOC(=O)C1(C)CC(c2cc(-n3c(=O)n(C)c(=S)n(C)c3=O)c(F)cc2Cl)=NO1 (stereo not drawn) [Compound 1-72] | 5 (Level 5: growth control rate is above 85%) | 5 (Level 5: growth control rate is above 85%) | 5 (Level 5: growth control rate is above 85%) | 5 (Level 5: growth control rate is above 85%) |
| CC(C)COC(=O)C1(C)CC(c2cc(-n3c(=O)n(C)c(=S)n(C)c3=O)c(F)cc2Cl)=NO1 (stereo not drawn) [Compound 1-73] | 5 (Level 5: growth control rate is above 85%) | 5 (Level 5: growth control rate is above 85%) | 5 (Level 5: growth control rate is above 85%) | 5 (Level 5: growth control rate is above 85%) |
| Cn1c(=S)n(C)c(=O)n(-c2cc(C3=NOC(C)(C(=O)OC(C)(C)C)C3)c(Cl)cc2F)c1=O (stereo not drawn) [Compound 1-74] | 5 (Level 5: growth control rate is above 85%) | 5 (Level 5: growth control rate is above 85%) | 5 (Level 5: growth control rate is above 85%) | 5 (Level 5: growth control rate is above 85%) |
| CCCCCCC(C)OC(=O)C1(C)CC(c2cc(-n3c(=O)n(C)c(=S)n(C)c3=O)c(F)cc2Cl)=NO1 (stereo not drawn) [Compound 1-75] | 5 (Level 5: growth control rate is above 85%) | 5 (Level 5: growth control rate is above 85%) | 5 (Level 5: growth control rate is above 85%) | 5 (Level 5: growth control rate is above 85%) |
| C=CCOC(=O)C1(C)CC(c2cc(-n3c(=O)n(C)c(=S)n(C)c3=O)c(F)cc2Cl)=NO1 (stereo not drawn) [Compound 1-76] | 5 (Level 5: growth control rate is above 85%) | 5 (Level 5: growth control rate is above 85%) | 5 (Level 5: growth control rate is above 85%) | 5 (Level 5: growth control rate is above 85%) |
| C#CCOC(=O)C1(C)CC(c2cc(-n3c(=O)n(C)c(=S)n(C)c3=O)c(F)cc2Cl)=NO1 (stereo not drawn) [Compound 1-79] | 5 (Level 5: growth control rate is above 85%) | 5 (Level 5: growth control rate is above 85%) | 5 (Level 5: growth control rate is above 85%) | 5 (Level 5: growth control rate is above 85%) |
| CC#CCOC(=O)C1(C)CC(c2cc(-n3c(=O)n(C)c(=S)n(C)c3=O)c(F)cc2Cl)=NO1 (stereo not drawn) [Compound 1-80] | 5 (Level 5: growth control rate is above 85%) | 5 (Level 5: growth control rate is above 85%) | 5 (Level 5: growth control rate is above 85%) | 5 (Level 5: growth control rate is above 85%) |
| C#CCCOC(=O)C1(C)CC(c2cc(-n3c(=O)n(C)c(=S)n(C)c3=O)c(F)cc2Cl)=NO1 (stereo not drawn) [Compound 1-81] | 5 (Level 5: growth control rate is above 85%) | 5 (Level 5: growth control rate is above 85%) | 5 (Level 5: growth control rate is above 85%) | 5 (Level 5: growth control rate is above 85%) |
| C#CC(C)OC(=O)C1(C)CC(c2cc(-n3c(=O)n(C)c(=S)n(C)c3=O)c(F)cc2Cl)=NO1 (stereo not drawn) [Compound 1-82] | 5 (Level 5: growth control rate is above 85%) | 5 (Level 5: growth control rate is above 85%) | 5 (Level 5: growth control rate is above 85%) | 5 (Level 5: growth control rate is above 85%) |
| Cn1c(=S)n(C)c(=O)n(-c2cc(C3=NOC(C)(C(=O)OC4CC4)C3)c(Cl)cc2F)c1=O (stereo not drawn) [Compound 1-83] | 5 (Level 5: growth control rate is above 85%) | 5 (Level 5: growth control rate is above 85%) | 5 (Level 5: growth control rate is above 85%) | 5 (Level 5: growth control rate is above 85%) |
| Cn1c(=S)n(C)c(=O)n(-c2cc(C3=NOC(C)(C(=O)OCC4CC4)C3)c(Cl)cc2F)c1=O (stereo not drawn) [Compound 1-84] | 5 (Level 5: growth control rate is above 85%) | 5 (Level 5: growth control rate is above 85%) | 5 (Level 5: growth control rate is above 85%) | 5 (Level 5: growth control rate is above 85%) |
| Cn1c(=S)n(C)c(=O)n(-c2cc(C3=NOC(C)(C(=O)OCC(F)F)C3)c(Cl)cc2F)c1=O (stereo not drawn) [Compound 1-86] | 5 (Level 5: growth control rate is above 85%) | 5 (Level 5: growth control rate is above 85%) | 5 (Level 5: growth control rate is above 85%) | 5 (Level 5: growth control rate is above 85%) |
| Cn1c(=S)n(C)c(=O)n(-c2cc(C3=NOC(C)(C(=O)OCC(F)(F)F)C3)c(Cl)cc2F)c1=O (stereo not drawn) [Compound 1-87] | 5 (Level 5: growth control rate is above 85%) | 5 (Level 5: growth control rate is above 85%) | 5 (Level 5: growth control rate is above 85%) | 5 (Level 5: growth control rate is above 85%) |
| Cn1c(=S)n(C)c(=O)n(-c2cc(C3=NOC(C)(C(=O)OCCCF)C3)c(Cl)cc2F)c1=O (stereo not drawn) [Compound 1-88] | 5 (Level 5: growth control rate is above 85%) | 5 (Level 5: growth control rate is above 85%) | 5 (Level 5: growth control rate is above 85%) | 5 (Level 5: growth control rate is above 85%) |
| Cn1c(=S)n(C)c(=O)n(-c2cc(C3=NOC(C)(C(=O)OCC(C)(F)F)C3)c(Cl)cc2F)c1=O (stereo not drawn) [Compound 1-89] | 5 (Level 5: growth control rate is above 85%) | 5 (Level 5: growth control rate is above 85%) | 5 (Level 5: growth control rate is above 85%) | 5 (Level 5: growth control rate is above 85%) |
| Cn1c(=S)n(C)c(=O)n(-c2cc(C3=NOC(C)(C(=O)OCCC(F)(F)F)C3)c(Cl)cc2F)c1=O (stereo not drawn) [Compound 1-90] | 5 (Level 5: growth control rate is above 85%) | 5 (Level 5: growth control rate is above 85%) | 5 (Level 5: growth control rate is above 85%) | 5 (Level 5: growth control rate is above 85%) |
| Cn1c(=S)n(C)c(=O)n(-c2cc(C3=NOC(C)(C(=O)OCC=CCl)C3)c(Cl)cc2F)c1=O (stereo not drawn) [Compound 1-92] | 5 (Level 5: growth control rate is above 85%) | 5 (Level 5: growth control rate is above 85%) | 5 (Level 5: growth control rate is above 85%) | 5 (Level 5: growth control rate is above 85%) |
